Tests used:
Assay type in all cases: biochemical
Conditions in all cases: lyophilized nitrilase lysate added; OPA or NDA as fluorogenic reagent
[1] = system: nitrilase of SEQ ID NO: 56; assay: OPA/NDA fluorescence assay of nitrile hydrolysis by nitrilase
Excerpt: (§1) FIG. 5C illustrates detection curves for hydroxylpivaldehyde aminonitrile (HPA), HPA combined with a nitrilase of SEQ ID NO: 56(“HPA+SEQ ID NO: 56”), dimethylbutanal aminonitrile (DMB), and DMB combined with a nitrilase of SEQ ID NO: 60 (“DMB+SEQ ID NO: 60”), all using OPA as the fluorogenic reagent.
(§2) FIG. 5D illustrates detection curves for HPA, HPA combined with a nitrilase of SEQ ID NO: 56 (“HPA+SEQ ID NO: 56”), DMB, and DMB combined with a nitrilase of SEQ ID NO: 60 (“DMB+SEQ ID NO: 60”), all using NDA as the fluorogenic reagent.
(§3) In assays using certain substrates, naphthalene dicarboxaldehyde (NDA) was substituted for OPA as the fluorescing agent. Calibration curves for APA, PAH, HPA and DMB, with either OPA or NDA were constructed (see FIGS. 5A, 5B, 5C and 5D). To determine sensitivity and background fluorescence, lyophilized nitrilase lysates with SEQ ID NOS: 190, 56, and 60 were added, respectively.

[2] = system: nitrilase having SEQ ID NO: 190; assay: OPA/NDA fluorescence assay of nitrile hydrolysis by lyophilized nitrilase lysate
Excerpt: FIG. 5A illustrates detection curves for assays of pivaldehyde aminonitrile (PAH), PAH combined with a lyophilized nitrilase lysate having a SEQ ID NO: 190 (“PAH+SEQ ID NO: 190”), acetophenone aminonitrile (APA), and APA combined with a lyophilized nitrilase lysate having a SEQ ID NO: 190 (“APA+SEQ ID NO: 190”), all using OPA as the fluorogenic reagent.
FIG. 5B illustrates detection curves for PAH, PAH combined with a lyophilized nitrilase lysate having a SEQ ID NO: 190 (“PAH+SEQ ID NO: 190”), APA, and APA combined with a lyophilized nitrilase lysate having a SEQ ID NO: 190 (“APA+SEQ ID NO: 190”), all using naphthalene dicarboxyaldehyde (NDA) as the fluorogenic reagent.
as §3

[3] = system: nitrilase of SEQ ID NO: 60; assay: OPA/NDA fluorescence assay of nitrile hydrolysis by nitrilase
Excerpt: as §1, §2, §3

Compound: CC(C)(CO)C(N)C#N (stereo not drawn) [HPA, hydroxylpivaldehyde aminonitrile]
- hydrolysis of the enzyme substrate [1]: Hydrolysis was detected

Compound: CC(N)(C#N)c1ccccc1 (stereo not drawn) [APA, acetophenone aminonitrile]
- hydrolysis of the enzyme substrate [2]: Hydrolysis was detected

Compound: dimethylbutanal aminonitrile [DMB]
- hydrolysis of the enzyme substrate [3]: Hydrolysis was detected

— patent US20040038419A1, “Assays and kits for detecting the presence of nitriles and/or cyanide” (priority 2002, published 2004)
